Assay results reported in patent US11739101B2, “Bifunctional degraders of hematopoietic progenitor kinase and therapeutic uses thereof” (Nurix Therapeutics, Inc., priority 2020, dated 2023).

What follows are compounds tested against T1, HPK1 (Homo sapiens, UniProt Q92918) (assay: HPK1 Cellular HiBiT Degradation Assay). Conditions: HiBiT-tagged HPK1 Jurkat cells, 24 hours, 10 uM to 0.1 nM; Dmax = 100 minus lowest % HPK1 remaining vs DMSO vehicle.
T1 construct: A HiBiT tag was introduced by CRISPR on the N terminus of HPK1 in Jurkat cells; host or cells: Jurkat (ATCC TIB-152), monoclonal CRISPR HiBiT knock-in line
Assay type: cell-based
In short: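 Jurkat cells with CRISPR N-terminal HiBiT-tagged HPK1 were exposed to an 11-point 3.16-fold dilution series, 10 uM to 0.1 nM final, for 24 hours at 37° C./5% CO2. HPK1 was read by HiBiT lytic luminescence against DMSO as 100% and parental cells as background. Dmax is 100 minus the lowest % remaining from a four-parameter fit, with a parallel CellTiter-Glo viability check.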

T1 sequence (Q92918 whole entry): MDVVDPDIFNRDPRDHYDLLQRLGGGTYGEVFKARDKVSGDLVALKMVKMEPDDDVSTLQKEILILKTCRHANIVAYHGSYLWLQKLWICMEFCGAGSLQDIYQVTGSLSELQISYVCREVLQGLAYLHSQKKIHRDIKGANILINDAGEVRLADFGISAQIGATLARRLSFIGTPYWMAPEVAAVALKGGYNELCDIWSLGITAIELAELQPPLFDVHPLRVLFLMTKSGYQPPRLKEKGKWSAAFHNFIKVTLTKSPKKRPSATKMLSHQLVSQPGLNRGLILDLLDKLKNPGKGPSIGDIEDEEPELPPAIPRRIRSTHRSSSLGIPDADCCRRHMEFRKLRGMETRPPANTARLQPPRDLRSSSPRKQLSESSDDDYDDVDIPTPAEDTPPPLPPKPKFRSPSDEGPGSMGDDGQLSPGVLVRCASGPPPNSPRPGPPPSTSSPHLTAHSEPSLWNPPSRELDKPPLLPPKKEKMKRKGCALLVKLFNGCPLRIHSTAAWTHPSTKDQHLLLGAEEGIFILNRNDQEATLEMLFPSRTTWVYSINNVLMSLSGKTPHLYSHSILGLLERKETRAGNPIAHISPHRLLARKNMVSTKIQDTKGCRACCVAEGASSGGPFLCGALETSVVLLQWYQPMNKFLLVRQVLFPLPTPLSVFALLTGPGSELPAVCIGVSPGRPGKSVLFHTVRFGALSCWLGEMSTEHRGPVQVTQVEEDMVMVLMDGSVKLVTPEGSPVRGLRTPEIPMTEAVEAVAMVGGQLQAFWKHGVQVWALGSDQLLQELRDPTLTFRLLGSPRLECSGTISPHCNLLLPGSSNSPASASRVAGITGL

| Dmax [%] | Structure (SMILES) | Cellular HPK1 HiBiT: Dmax (%) |
| --- | --- | --- |
| < 45 | CC(=O)N1CCC2(CC1)C(=O)N([C@H]1C[C@@H](N3CCC[C@@H](C(=O)NCCCCCCCCCNc4ccc5c(c4)C(=O)N(C4CCC(=O)NC4=O)C5=O)C3)C1)c1cc(-c3cc4ncn(C(C)C)c4c(Nc4cc(C(=O)NC(C)C)c(C)cc4F)n3)ccc12 (stereo partly drawn) [Example 15, (3R)-1-((1s,3s)-3-(1′-acetyl-6-(4-((2-fluoro-5-(isopropylcarbamoyl)-4-methylphenyl)amino)-3-isopropyl-3H-imidazo[4,5-c]pyridin-6-yl)-2-oxospiro[indoline-3,4′-piperidin]-1-yl)cyclobutyl)-N-(9-((2-(2,6-dioxopiperidin-3-yl)-1,3-dioxoisoindolin-5-yl)amino)nonyl)piperidine-3-carboxamide] |  |
| 45 to 65 | Cc1cc(F)c(Nc2nc(-c3ccc4c(c3)N([C@H]3C[C@@H](N5CCCCC5)C3)C(=O)C43CCN(C(=O)c4ccc(C(=O)N5CCC(c6ccc7c(c6)C(=O)N(C6CCC(=O)NC6=O)C7=O)CC5)cc4)CC3)cc3ncn(C(C)C)c23)cc1C(=O)NC(C)C (stereo partly shown) [Example 76, 5-[(6-{1′-[4-(4-{2-[2,6-dioxopiperidin-3-yl]-1,3-dioxo-2,3-dihydro-1H-isoindol-5-yl}piperidine-1-carbonyl)benzoyl]-2-oxo-1-[(1s,3s)-3-(piperidin-1-yl)cyclobutyl]-1,2-dihydrospiro[indole-3,4′-piperidin]-6-yl}-3-(propan-2-yl)-3H-imidazo[4,5-c]pyridin-4-yl)amino]-4-fluoro-2-methyl-N-(propan-2-yl)benzamide] |  |
| > 65 | Cc1cc(F)c(Nc2nc(-c3ccc4c(c3)N([C@H]3C[C@@H](N5CCCCC5)C3)C(=O)C43CCN(C(=O)C4CN(CC5CCN(c6cccc7c6C(=O)N(C6CCC(=O)NC6=O)C7=O)CC5)C4)CC3)cc3ncn(C(C)C)c23)cc1C(=O)NC(C)C (stereo partly shown) [Example 33, 5-{[6-(1′-{1-[(1-{2-[2,6-dioxopiperidin-3-yl]-1,3-dioxo-2,3-dihydro-1H-isoindol-4-yl}piperidin-4-yl)methyl]azetidine-3-carbonyl}-2-oxo-1-[(1s,3s)-3-(piperidin-1-yl)cyclobutyl]-1,2-dihydrospiro[indole-3,4′-piperidin]-6-yl)-3-(propan-2-yl)-3H-imidazo[4,5-c]pyridin-4-yl]amino}-4-fluoro-2-methyl-N-(propan-2-yl)benzamide] |  |
| 45 to 65 | Cc1cc(F)c(Nc2nc(-c3ccc4c(c3)N([C@H]3C[C@@H](N5CCCCC5)C3)C(=O)C43CCN(C(=O)c4ccc(C(=O)N5CCN(c6ccc7c(c6)C(=O)N(C6CCC(=O)NC6=O)C7=O)CC5)cc4)CC3)cc3ncn(C(C)C)c23)cc1C(=O)NC(C)C (stereo partly shown) [Example 78, 5-((6-(1′-(4-(4-(2-(2,6-dioxopiperidin-3-yl)-1,3-dioxoisoindolin-5-yl)piperazine-1-carbonyl)benzoyl)-2-oxo-1-((1s,3s)-3-(piperidin-1-yl)cyclobutyl)spiro[indoline-3,4′-piperidin]-6-yl)-3-isopropyl-3H-imidazo[4,5-c]pyridin-4-yl)amino)-4-fluoro-N-isopropyl-2-methylbenzamide] |  |
| < 45 | Cc1cc(F)c(Nc2nc(-c3ccc4c(c3)N(C3CC(N5CCCCC5)C3)C(=O)C43CCN(C(=O)CCCCCCCCCNc4ccc5c(c4)C(=O)N(C4CCC(=O)NC4=O)C5=O)CC3)cc3ncn(C(C)C)c23)cc1C(=O)NC(C)C (stereo not shown) [Example 4, 5-((6-(1′-(10-((2-(2,6-dioxopiperidin-3-yl)-1,3-dioxoisoindolin-5-yl)amino)decanoyl)-2-oxo-1-((1s,3s)-3-(piperidin-1-yl)cyclobutyl)spiro[indoline-3,4′-piperidin]-6-yl)-3-isopropyl-3H-imidazo[4,5-c]pyridin-4-yl)amino)-4-fluoro-N-isopropyl-2-methylbenzamide] |  |
|  | Cc1cc(F)c(Nc2nc(-c3ccc4c(c3)N(C3CC(N5CCCCC5)C3)C(=O)C43CCN(C(=O)CCCCCCCCCC(=O)N[C@H](C(=O)N4C[C@H](O)C[C@H]4C(=O)N[C@@H](C)c4ccc(-c5scnc5C)cc4)C(C)(C)C)CC3)cc3ncn(C(C)C)c23)cc1C(=O)NC(C)C (stereo partly drawn) [Example 8, (2S,4R)-1-((S)-2-(11-(6-(4-((2-fluoro-5-(isopropylcarbamoyl)-4-methylphenyl)amino)-3-isopropyl-3H-imidazo[4,5-c]pyridin-6-yl)-2-oxo-1-((1s,3s)-3-(piperidin-1-yl)cyclobutyl)spiro[indoline-3,4′-piperidin]-1′-yl)-11-oxoundecanamido)-3,3-dimethylbutanoyl)-4-hydroxy-N—((S)-1-(4-(4-methylthiazol-5-yl)phenyl)ethyl)pyrrolidine-2-carboxamide] | A (A>65%) |
| > 65 | Cc1cc(F)c(Nc2nc(-c3ccc4c(c3)N([C@H]3C[C@@H](N5CCCCC5)C3)C(=O)C43CCN(C(=O)C4CCN(C(=O)[C@H]5CC[C@H](Nc6cccc7c6C(=O)N(C6CCC(=O)NC6=O)C7=O)CC5)CC4)CC3)cc3ncn(C(C)C)c23)cc1C(=O)NC(C)C (stereo partly drawn) [Example 60, 4-fluoro-2-methyl-5-{[6-(2-oxo-1′-{1-[(1R,4R)-4-({2-[2,6-dioxopiperidin-3-yl]-1,3-dioxo-2,3-dihydro-1H-isoindol-4-yl}amino)cyclohexanecarbonyl]piperidine-4-carbonyl}-1-[(1s,3s)-3-(piperidin-1-yl)cyclobutyl]-1,2-dihydrospiro[indole-3,4′-piperidin]-6-yl)-3-(propan-2-yl)-3H-imidazo[4,5-c]pyridin-4-yl]amino}-N-(propan-2-yl)benzamide] |  |
| > 65 | Cc1cc(F)c(Nc2nc(-c3ccc4c(c3)N([C@H]3C[C@@H](N5CCCCC5)C3)C(=O)C43CCN(C(=O)OC4CCN(C(=O)C5CCN(c6ccc7c(c6)C(=O)N(C6CCC(=O)NC6=O)C7=O)CC5)CC4)CC3)cc3ncn(C(C)C)c23)cc1C(=O)NC(C)C (stereo partly shown) [Example 55, 1-(1-{2-[2,6-dioxopiperidin-3-yl]-1,3-dioxoisoindol-5-yl}piperidine-4-carbonyl)piperidin-4-yl 6-(4-{[2-fluoro-5-(isopropylcarbamoyl)-4-methylphenyl]amino}-3-isopropylimidazo[4,5-c]pyridin-6-yl)-2-oxo-1-[(1s,3s)-3-(piperidin-1-yl)cyclobutyl]spiro[indole-3,4′-piperidine]-1′-carboxylate] |  |
|  | Cc1cc(F)c(Nc2nc(-c3ccc4c(c3)N([C@H]3C[C@@H](N5CCCCC5)C3)C(=O)C43CCN(C(=O)c4cccc(C5CCN(c6cccc7c6C(=O)N(C6CCC(=O)NC6=O)C7=O)CC5)c4)CC3)cc3ncn(C(C)C)c23)cc1C(=O)NC(C)C (stereo partly shown) [Example 53, 5-[(6-{1′-[3-(1-{2-[2,6-dioxopiperidin-3-yl]-1,3-dioxo-2,3-dihydro-1H-isoindol-4-yl}piperidin-4-yl)benzoyl]-2-oxo-1-[(1s,3s)-3-(piperidin-1-yl)cyclobutyl]-1,2-dihydrospiro[indole-3,4′-piperidin]-6-yl}-3-(propan-2-yl)-3H-imidazo[4,5-c]pyridin-4-yl)amino]-4-fluoro-2-methyl-N-(propan-2-yl)benzamide] | B (45%≤B≤65%) |
| 45 to 65 | Cc1cc(F)c(Nc2nc(-c3ccc4c(c3)N([C@H]3C[C@@H](N5CCCCC5)C3)C(=O)C43CCN(C(=O)c4ccc(N(C)C5CCN(c6ccc7c(c6)C(=O)N(C6CCC(=O)NC6=O)C7=O)CC5)cc4)CC3)cc3ncn(C(C)C)c23)cc1C(=O)NC(C)C (stereo partly shown) [Example 97, 5-{[6-(1′-{4-[(1-{2-[2,6-dioxopiperidin-3-yl]-1,3-dioxoisoindol-5-yl}piperidin-4-yl)(methyl)amino]benzoyl}-2-oxo-1-[(1s,3s)-3-(piperidin-1-yl)cyclobutyl]spiro[indole-3,4′-piperidin]-6-yl)-3-isopropylimidazo[4,5-c]pyridin-4-yl]amino}-4-fluoro-N-isopropyl-2-methylbenzamide] |  |
| > 65 | Cc1cc(F)c(Nc2nc(-c3ccc4c(c3)N([C@H]3C[C@@H](N5CCCCC5)C3)C(=O)C43CCN(C(=O)c4ccc(C(=O)N5CCN(c6ccc7c(c6)C(=O)N(C6CCC(=O)NC6=O)C7=O)CC5C)cc4)CC3)cc3ncn(C(C)C)c23)cc1C(=O)NC(C)C (stereo partly shown) [Example 72, 5-[(6-{1′-[4-(4-{2-[2,6-dioxopiperidin-3-yl]-1,3-dioxo-2,3-dihydro-1H-isoindol-5-yl}-2-methylpiperazine-1-carbonyl)benzoyl]-2-oxo-1-[(1s,3s)-3-(piperidin-1-yl)cyclobutyl]-1,2-dihydrospiro[indole-3,4′-piperidin]-6-yl}-3-(propan-2-yl)-3H-imidazo[4,5-c]pyridin-4-yl)amino]-4-fluoro-2-methyl-N-(propan-2-yl)benzamide] |  |
| < 45 | Cc1cc(F)c(Nc2nc(-c3ccc4c(c3)N([C@H]3C[C@@H](N5CCCCC5)C3)C(=O)C43CCN(C(=O)C4CCN(C(=O)C5CC(Nc6cccc7c6C(=O)N(C6CCC(=O)NC6=O)C7=O)C5)C4)CC3)cc3ncn(C(C)C)c23)cc1C(=O)NC(C)C (stereo partly shown) [Example 30, 4-fluoro-2-methyl-5-[(6-{2-oxo-1-[(1s,3s)-3-(piperidin-1-yl)cyclobutyl]-1′-[1-[(1s,3s)-3-({2-[2,6-dioxopiperidin-3-yl]-1,3-dioxo-2,3-dihydro-1H-isoindol-4-yl}amino)cyclobutanecarbonyl]pyrrolidine-3-carbonyl]-1,2-dihydrospiro[indole-3,4′-piperidin]-6-yl}-3-(propan-2-yl)-3H-imidazo[4,5-c]pyridin-4-yl)amino]-N-(propan-2-yl)benzamide] |  |

| Structure (SMILES) | Dmax [%] | Cellular HPK1 HiBiT: Dmax (%) |
| --- | --- | --- |
| Cc1cc(F)c(Nc2nc(-c3ccc4c(c3)N([C@H]3C[C@@H](N5CCCCC5)C3)C(=O)C43CCN(C(=O)c4ccc(C(=O)N5C6CCC5CN(c5ccc7c(c5)C(=O)N(C5CCC(=O)NC5=O)C7=O)C6)cc4)CC3)cc3ncn(C(C)C)c23)cc1C(=O)NC(C)C (stereo partly shown) [Example 93, 5-({6-[1′-(4-{3-[2-(2,6-dioxopiperidin-3-yl)-1,3-dioxoisoindol-5-yl]-3,8-diazabicyclo[3.2.1]octane-8-carbonyl}benzoyl)-2-oxo-1-[(1s,3s)-3-(piperidin-1-yl)cyclobutyl]spiro[indole-3,4′-piperidin]-6-yl]-3-isopropylimidazo[4,5-c]pyridin-4-yl}amino)-4-fluoro-N-isopropyl-2-methylbenzamide] | 45 to 65 |  |
